# Laboratory results taken from patent US20190127366A1 (LifeSci Pharmaceuticals, Inc., priority 2015, published 2019).
# Target: T1, human complement factor D (Homo sapiens, UniProt P00746)
# T1 construct: purchased R&D Systems 1824-SE
# Assay: In vitro enzyme inhibition (Z-Lys-SBzl/DTNB absorbance assay)
# Type: biochemical
# Settings: Complement Factor D (R&D Systems), substrate Z-Lys-SBzl, A405 nm; read-out: CFD IC50
# In short: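 Factor D (6.25 ng/μL before addition) preincubated 5 min RT with compound (8 points from 50 μM, 6-fold, 0.5% DMSO final) in 50 mM Tris/HCl pH 7.5, 1 M NaCl, then Z-Lys-SBzl/DTNB added (200 μM each before addition). A405 read kinetically every 30 s for 60 min; IC50 from variable-slope fit, controls with and without enzyme.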
# T1 sequence (P00746 26-253): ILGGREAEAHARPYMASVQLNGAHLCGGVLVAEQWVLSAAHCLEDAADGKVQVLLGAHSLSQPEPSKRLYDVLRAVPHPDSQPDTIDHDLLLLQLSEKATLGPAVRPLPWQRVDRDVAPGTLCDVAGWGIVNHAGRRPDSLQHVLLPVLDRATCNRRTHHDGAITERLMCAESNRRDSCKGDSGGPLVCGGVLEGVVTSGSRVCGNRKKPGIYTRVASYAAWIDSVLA
row,SMILES,IC50
1,"NC(=O)c1nn(CC(=O)N2[C@H]3CC[C@H](C3)[C@H]2C(=O)Nc2cccc(Cl)n2)c2ccc(Cl)cc12 [Example 16, 5-chloro-1-(2-((1S,3S,4R)-3-((6-chloropyridin-2-yl)carbamoyl)-2-azabicyclo[2.2.1]heptan-2-yl)-2-oxoethyl)-1H-indazole-3-carboxamide]",1 to 10 µM
2,"NC(=O)c1nn(CC(=O)N2C3CCC(C3)[C@H]2C(=O)Nc2cccc(C(F)(F)F)n2)c2ccccc12 (stereo partly drawn) [Example 13, 1-(2-oxo-2-((3S)-3-((6-(trifluoromethyl)pyridin-2-yl)carbamoyl)-2-azabicyclo[2.2.1]heptan-2-yl)ethyl)-1H-indazole-3-carboxamide]",1 to 10 µM
3,"N#Cc1cc(Cl)c(F)c(CNC(=O)[C@@H]2[C@H]3CC[C@H](C3)N2C(=O)Cn2nc(C(N)=O)c3ccccc32)c1 [Example 113, 1-(2-((1R,3S,4S)-3-((3-chloro-5-cyano-2-fluorobenzyl)carbamoyl)-2-azabicyclo[2.2.1]heptan-2-yl)-2-oxoethyl)-1H-indazole-3-carboxamide]",1 to 10 µM
4,"NC(=O)c1nn(CC(=O)N2[C@@H]3CC[C@@H](C3)[C@H]2C(=O)Nc2cccc(OC(F)(F)F)c2F)c2ccccc12 [Example 41, 1-(2-((1R,3S,4S)-3-((2-fluoro-3-(trifluoromethoxy)phenyl)carbamoyl)-2-azabicyclo[2.2.1]heptan-2-yl)-2-oxoethyl)-1H-indazole-3-carboxamide]",1 to 10 µM
5,"NC(=O)c1nn(CC(=O)N2[C@H](C(=O)NCc3cccc(Cl)c3F)C[C@@H]3CCC[C@@H]32)c2ccc(C3CC3)cc12 [Example 199, 1-(2-((2S,3aS,6aS)-2-((3-chloro-2-fluorobenzyl)carbamoyl)hexahydrocyclopenta[b]pyrrol-1(2H)-yl)-2-oxoethyl)-5-cyclopropyl-1H-indazole-3-carboxamide]",0.1 to 1 µM
6,"NC(=O)c1nn(CC(=O)N2CCNC[C@H]2C(=O)Nc2cccc(C(F)(F)F)n2)c2ccccc12 [Example 29, (S)-1-(2-oxo-2-(2-((6-(trifluoromethyl)pyridin-2-yl)carbamoyl)piperazin-1-yl)ethyl)-1H-indazole-3-carboxamide]",> 10 µM
7,"NC(=O)c1nn(CC(=O)N2[C@@H]3CC[C@@H](C3)[C@H]2C(=O)NCc2c(C(=O)O)ccc(Cl)c2F)c2ccccc12 [Example 117, 2-(((1R,3S,4S)-2-(2-(3-carbamoyl-1H-indazol-1-yl)acetyl)-2-azabicyclo[2.2.1]heptane-3-carboxamido)methyl)-4-chloro-3-fluorobenzoic acid]",1 to 10 µM
8,"NC(=O)c1nn(CC(=O)N2CCNCCC2C(=O)NCc2cccc(Cl)c2F)c2ccccc12 (centres unmarked) [Example 35, 1-(2-(7-((3-chloro-2-fluorobenzyl)carbamoyl)-1,4-diazepan-1-yl)-2-oxoethyl)-1H-indazole-3-carboxamide 2,2,2-trifluoroacetate]",1 to 10 µM
9,"NC(=O)c1nn(CC(=O)N2CCCNCC2C(=O)NCc2cccc(Cl)c2F)c2ccccc12 (centres unmarked) [Example 33, 1-(2-(2-((3-chloro-2-fluorobenzyl)carbamoyl)-1,4-diazepan-1-yl)-2-oxoethyl)-1H-indazole-3-carboxamide]",> 10 µM
10,"NC(=O)c1nn(CC(=O)N2[C@@H](C(=O)Nc3cccc(Cl)n3)C[C@H]3CCC[C@H]32)c2ccccc12 [Example 171, 1-(2-((2R,3aR,6aR)-2-((6-chloropyridin-2-yl)carbamoyl)hexahydrocyclopenta[b]pyrrol-1(2H)-yl)-2-oxoethyl)-1H-indazole-3-carboxamide]",> 10 µM
11,"COc1ccc2c(c1)c(C(N)=O)nn2CC(=O)N1[C@H](C(=O)Nc2cccc(Cl)n2)C[C@@H]2CCC[C@@H]21 [Example 170, 1-(2-((2S,3aS,6aS)-2-((6-chloropyridin-2-yl)carbamoyl)hexahydrocyclopenta[b]pyrrol-1(2H)-yl)-2-oxoethyl)-5-methoxy-1H-indazole-3-carboxamide]",0.1 to 1 µM
